Measurements: ChEMBL document CHEMBL1155634, “New butenolides from two marine streptomycetes” (J Nat Prod, 2000)
Active and inactive are the calls of the source. The calls are words filed in the database; no cut-off is given here.

How the values were obtained:
Assay type in all cases: functional, organism-based
[1] = test system: Streptomyces viridochromogenes; test: Antibacterial activity against Streptomyces viridochromogenes Tu57 assessed as inhibition of spore formation
[2] = test system: Escherichia coli; test: Antibacterial activity against Escherichia coli
[3] = test system: Staphylococcus aureus; test: Antibacterial activity against Staphylococcus aureus
[4] = test system: Candida albicans; test: Antifungal activity against Candida albicans
[5] = test system: Rhizomucor miehei; test: Antifungal activity against Mucor miehei Tu284
[6] = test system: Streptomyces viridochromogenes; test: Antibacterial activity against Streptomyces viridochromogenes Tu57

Row | SMILES | Activity [1] | Activity [2] | Activity [3] | Activity [4] | Activity [5] | Activity [6]
1 | CC(O)C(C)CCCCC[C@H]1C=CC(=O)O1 (stereo in doubt; 2) | inactive | – | – | – | – | –
2 | CCC(C)(O)CCCCC[C@H]1C=CC(=O)O1 (some centres undefined) | inactive | – | – | – | – | –
3 | CC(=O)C(C)CCCCC[C@H]1C=CC(=O)O1 (some centres undefined) | inactive | inactive | inactive | inactive | inactive | inactive
4 | CC(O)C(C)CCCCC[C@H]1C=CC(=O)O1 (stereo in doubt; 3) | inactive | – | – | – | – | –
